Source: paper PMC6211256, “From cycloheptathiophene-3-carboxamide to oxazinone-based derivatives as allosteric HIV-1 ribonuclease H inhibitors” (Journal of Enzyme Inhibition and Medicinal Chemistry, 2018)
“Also recorded” adds a separate entry of the source. Where two headings read alike, the source gives them in different places.

Key:
[1] = target: T1, HIV-1 RT-associated RNase H (Human immunodeficiency virus type 1 group M subtype B, UniProt P04585); design: method as in PMID 26990134; details: previously reported value; read-out: IC50, RNase H inhibition; cited from earlier work
[2] = target: T2, HIV-1 RT-associated RNA dependent DNA polymerase (RDDP) (Human immunodeficiency virus type 1 group M subtype B, UniProt P04585); design: method as in PMID 26990134; details: RDDP vs RNase H; cited from earlier work
[3] = target: T1, HIV-1 RT-associated RNase H; assay: HIV-1 DNA polymerase-independent RNase H activity determination (wt RT); type: biochemical
Method: (§1) Heterodimeric RT was expressed essentially as described[19]^,[39]. Using a BioLogic LP system (Biorad), using a combination of immobilised metal affinity (Ni-Sepharose high performance, Healthcare Lifescience) and ion exchange chromatography (Hi-trap heparin HP GE). The protein was dialysed and stored in buffer containing 50 mM Tris HCl pH 7.0, 25 mM NaCl, 1 mM EDTA, and 50% glycerol. Catalytic activities and protein concentrations were determined. Enzyme-containing fractions were pooled and aliquots were stored at −80 °C.
(§2) HIV RT-associated RNase H activity was measured as described[40] using as a control the RNase H selective inhibitor RDS1759[9], and using different amount of enzymes according to a linear range of dose-response curve: 20 ng of WT RT; 75 ng V108F RT; 50 ng Y188A RT; 30 ng W229A RT; 100 ng A502F RT.

[4] = Cytotoxicity in MT-4 cells; details: human
[5] = target: T2, HIV-1 RT-associated RNA dependent DNA polymerase (RDDP); assay: HIV-1 RNA-dependent DNA polymerase activity determination (wt RT); type: biochemical
Method: as §1
(§3) RNA-dependent DNA polymerase (RDDP) activity was measured as described[17] using and different amounts of enzymes according to a linear range of dose-response curve: 6 ng wt RT; 19 ng V108F RT; 45 ng Y188A RT; 30 ng W229A RT; A502F RT. The Yonetani-Theorell analysis was performed as previously described[41]^,[42].

Y188A RT (RDDP function) = Y188A RT (RDDP function) (Human immunodeficiency virus type 1 group M subtype B, UniProt P04585, Y775A); assay: RDDP activity of Y188A mutated RT; type: biochemical, HIV-1
Method: as §3

V108F RT (RDDP function) = V108F RT (RDDP function) (Human immunodeficiency virus type 1 group M subtype B, UniProt P04585, V695F); assay: RDDP activity of V108F mutated RT; type: biochemical, HIV-1
Method: as §3

W229A RT (RDDP function) = W229A RT (RDDP function) (Human immunodeficiency virus type 1 group M subtype B, UniProt P04585, W816A); assay: RDDP activity of W229A mutated RT; type: biochemical, HIV-1; details: compared with wt RT
Method: as §3

A502F RT (RDDP function) = A502F RT (RDDP function) (Human immunodeficiency virus type 1 group M subtype B, UniProt P04585, A1089F); assay: RDDP activity of A502F mutated RT; type: biochemical, HIV-1; details: compared with wt RT
Method: as §3

[6] = target: Y188A RT (RNase H function) (Human immunodeficiency virus type 1 group M subtype B, UniProt P04585, Y775A); assay: RNase H activity of Y188A mutated RT; type: biochemical, HIV-1; details: compared with wt RT
Method: as §2

[7] = target: V108F RT (RNase H function) (Human immunodeficiency virus type 1 group M subtype B, UniProt P04585, V695F); assay: RNase H activity of V108F mutated RT; type: biochemical, HIV-1; details: compared with wt RT
Method: as §2

[8] = target: W229A RT (RNase H function) (Human immunodeficiency virus type 1 group M subtype B, UniProt P04585, W816A); assay: RNase H activity of W229A mutated RT; type: biochemical, HIV-1; details: compared with wt RT
Method: as §2

[9] = target: A502F RT (RNase H function) (Human immunodeficiency virus type 1 group M subtype B, UniProt P04585, A1089F); assay: RNase H activity of A502F mutated RT; type: biochemical, HIV-1
Method: as §2

p66/p51 HIV-1 RT = p66/p51 HIV-1 RT (Human immunodeficiency virus type 1 group M subtype B, UniProt P04585); type: binding; details: increasing concentration of compound; 100 ng/µl HIV-1 RT
[10] = Interaction between Mg2+ and HIV-1 RT inhibitors (UV-Vis spectra with MgCl2); type: physicochemical; details: 100 µM compound, MgCl2 up to 1.25 mM
Method: The effects of the magnesium ions were evaluated by mean of spectrophotometric method as reported, using a Ultrospec 2100 pro UV-Vis spectrophotometer (Amersham Biosciences) and Hellma quartz cuvette with 1 cm optical path. […]. Each studied compound was dissolved in DMSO to a final concentration of 10 mM and diluted in milliQ water to a final concentration of 100 µM. Each obtained solution was placed in a cuvette and the UV-Vis and the spectra were recorded between 200 and 700 nm using water milliQ (with a percentage of DMSO equal to the one present in the sample solution) as reference. Thereafter, small volumes of MgCl2 aqueous solution were added both in the sample and in the reference cuvettes to obtain a series of solutions containing increasing concentrations of MgCl2, up to 1.25 mM, carefully pipetting to mix, and the UV-Vis spectra were repeated. Each experiment was performed in triplicate.

[11] = target: HIV-1 RT wild type RNA-dependent DNA polymerase activity (Human immunodeficiency virus type 1 group M subtype B, UniProt P04585); assay: Yonetani-Theorell analysis of combination with EFV on RDDP function; type: biochemical; details: compound 22 at 10 and 30 μM with EFV
Method: as §3

[12] = wt RT, read-out: IC50, HIV-1 RT-associated RNase H activity

In the case of `O=C(Nc1sc2c(c1C(=O)Nc1ccccn1)CCCCC2)c1ccc(O)c(O)c1` [Compound 1], the IC50 [1] is listed as 0.84 µM and the “weaker potency against the polymerase activity with respect to RNase H activity” value [2] is listed as 20 fold.

With `Nc1sc2c(c1C(=O)Nc1ccc(Cl)cc1)CCCCC2` [Compound 5] the IC50 [3, 12] was 16.5 µM.

In the case of `NC(=O)c1c(NC(=O)c2ccc(O)c(O)c2)sc2c1CCCCC2` [Compound 6, 2-[(3,4-Dihydroxybenzoyl)amino]-5,6,7,8-tetrahydro-4H-cyclohepta[b]thiophene-3-carboxamide], the IC50 [3, 12] is reported as 2.6 µM.

`COc1ccccc1C(=O)Nc1sc2c(c1C(N)=O)CCCCC2` [Compound 7, 2-[(2-Methoxybenzoyl)amino]-5,6,7,8-tetrahydro-4H-cyclohepta[b]thiophene-3-carboxamide] gave an IC50 [3, 12] of 14 µM.

Work on `O=c1oc(-c2ccc(O)c(O)c2)nc2sc3c(c12)CCCCC3` [Compound 10, 2–(3,4-Dihydroxyphenyl)-6,7,8,9-tetrahydro-4H,5H-cyclohepta[4,5]thieno[2,3-d][1,3]oxazin-4-one] yielded an IC50 ([3]; compound added after the RNA:DNA duplex substrate, read-out: IC50, RNase H activity, compound added after the RNA:DNA duplex substrate) of 11 µM, an IC50 [3, 12] of 1.1 µM and a CC50 [4] of 27 to 300 µM.

With `O=c1oc(-c2ccccc2O)nc2sc3c(c12)CCCCC3` [Compound 12, 2–(2-Hydroxyphenyl)-6,7,8,9-tetrahydro-4H,5H-cyclohepta[4,5]thieno[2,3-d][1,3]oxazin-4-one] the IC50 [3, 12] was 18.2 µM.

`O=c1oc(-c2ccc(O)c(O)c2)nc2sc3c(c12)CCCC3` [Compound 20, 2–(3,4-Dihydroxyphenyl)-5,6,7,8-tetrahydro-4H-[1]benzothieno[2,3-d][1,3]oxazin-4-one] gave an IC50 [3, 12] of 3.35 µM and a CC50 [4] of 27 to 300 µM.

`O=c1oc(-c2ccc(O)c(O)c2)nc2sc3c(c12)CCC3` [Compound 21, 2–(3,4-Dihydroxyphenyl)-6,7-dihydro-4H,5H-cyclopenta[4,5]thieno[2,3-d][1,3]oxazin-4-one] gave an IC50 [3, 12] of 1 µM and a CC50 [4] of 27 to 300 µM.

`O=c1oc(-c2ccc(O)c(O)c2)nc2sc3ccccc3c12` [Compound 22, 2–(3,4-Dihydroxyphenyl)-4H-[1]benzothieno[2,3-d][1,3]oxazin-4-one] showed an IC50 [3, 12] of 0.53 µM, an IC50 [5] of 2.9 µM and an IC50 (Y188A RT (RDDP function)) of 9.64 µM. For the same compound, the IC50 (V108F RT (RDDP function)) was 10.6 µM, the “effect of W229A substitution on inhibition of RDDP” value (W229A RT (RDDP function)) was “did not significantly affect” and the “effect of A502F substitution on inhibition of RDDP” value (A502F RT (RDDP function)) was “not significantly affecting”. For the same compound, the “effect of Y188A substitution on inhibition of RNase H” value [6] was “no significant effect”, the “effect of V108F substitution on inhibition of RNase H” value [7] was “no significant effect” and the “effect of W229A substitution on inhibition of RNase H” value [8] was “did not significantly affect”. The IC50 [9] was > 100 µM, the “change of RT melting temperature (Tm)” value (p66/p51 HIV-1 RT) was “dose-dependent increase in the RT Tm” and the “magnesium complexation (UV-Vis spectra)” value [10] was “did not show any shift in the maximum of absorbance; also recorded: unable to chelate Mg^2+ ions”. The “Yonetani-Theorell: combined RDDP inhibition with EFV” value [11] was “kinetically mutually exclusive” and the CC50 [4] was 27 to 300 µM.

In the case of `O=c1oc(-c2ccc(O)c(O)c2)nc2c3c(sc12)CCCCC3` [Compound 23, 2–(3,4-Dihydroxyphenyl)-7,8,9,10-tetrahydrocyclohepta[4,5]thieno[3,2-d][1,3]oxazin-4(6H)-one], the CC50 [4] is reported as 27 to 300 µM.

In the case of `O=c1oc(-c2ccc(O)c(O)c2)nc2c1sc1ccccc12` [Compound 24, 2–(3,4-Dihydroxyphenyl)-4H-[1]benzothieno[3,2-d][1,3]oxazin-4-one], the IC50 [3, 12] is reported as 0.96 µM, the IC50 [5] is reported as 14.6 µM and the “change of RT melting temperature (Tm)” value (p66/p51 HIV-1 RT) is reported as “dose-dependent increase in the RT Tm”. For the same compound, the “magnesium complexation (UV-Vis spectra)” value [10] was “did not show any shift in the maximum of absorbance; also recorded: unable to chelate Mg^2+ ions” and the CC50 [4] was 27 to 300 µM.

Compound `O=c1oc(-c2ccc(O)c(O)c2)nc2c1CCCCC2` [Compound 25, 2–(3,4-Dihydroxyphenyl)-6,7,8,9-tetrahydrocyclohepta[d][1,3]oxazin-4(5H)-one] has a CC50 [4] of 27 to 300 µM.

Work on `O=c1oc(-c2ccc(O)c(O)c2)nc2ccccc12` [Compound 26, 2–(3,4-Dihydroxyphenyl)-4H-3,1-benzoxazin-4-one] yielded a CC50 [4] of 27 to 300 µM.

`O=c1[nH]c(-c2ccc(O)c(O)c2)nc2ccccc12` [Compound 27, 2–(3,4-Dihydroxyphenyl)quinazolin-4(3H)-one] showed a CC50 [4] of 27 to 300 µM.
